Source: patent US9284333B2, “Fused pyrroledicarboxamides and their use as pharmaceuticals” (SANOFI, priority 2012, dated 2016)

Biological target: Human TASK-1 channels (Homo sapiens (Human), UniProt O14649)
Test: Determination of the activity on the TASK-1 channel in Xenopus oocytes (two-microelectrode voltage clamp)
Format: cell-based
Details: compound concentration 5 μM
Method in brief: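 Xenopus oocytes were injected with human TASK-1 cRNA and recorded two days later by two-microelectrode voltage clamp, holding at −90 mV with 500 ms steps to 40 mV. Superfusion used ND96, pH 7.4, at room temperature, with rising compound concentrations; percentage inhibition of control current was fitted to a dose-response curve for IC50.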

Chain of Human TASK-1 channels (O14649 whole entry): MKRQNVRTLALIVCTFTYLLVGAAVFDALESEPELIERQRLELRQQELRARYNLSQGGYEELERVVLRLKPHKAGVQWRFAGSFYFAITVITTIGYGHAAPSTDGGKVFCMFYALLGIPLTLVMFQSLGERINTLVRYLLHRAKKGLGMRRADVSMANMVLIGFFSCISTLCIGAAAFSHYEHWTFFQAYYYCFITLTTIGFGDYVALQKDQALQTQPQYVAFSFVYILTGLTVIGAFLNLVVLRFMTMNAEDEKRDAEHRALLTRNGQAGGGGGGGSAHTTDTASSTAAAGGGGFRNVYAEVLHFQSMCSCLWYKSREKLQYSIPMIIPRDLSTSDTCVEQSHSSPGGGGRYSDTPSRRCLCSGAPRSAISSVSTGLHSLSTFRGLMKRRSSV

**Q.** How did the inhibition at 5 µM turn out when `CC[C@@H](NC(=O)c1cc(C(=O)N2CCC[C@@H]2C)c2n1CCOC2)c1ccc(C#N)cc1` [16nl, 8-((S)-2-Methyl-pyrrolidine-1-carbonyl)-3,4-dihydro-1H-pyrrolo[2,1-c][1,4]oxazine-6-carboxylic acid [(R)-1-(4-cyano-phenyl)-propyl]-amide] was run?
**A.** 70%

**Q.** Which inhibition at 5 µM does the source give for `C[C@@H](NC(=O)c1cc(C(=O)NCC2CC2)c2n1CCOC2)c1ccc(F)cc1` [16ds, 3,4-Dihydro-1H-pyrrolo[2,1-c][1,4]oxazine-6,8-dicarboxylic acid 8-cyclopropylmethyl-amide 6-{[(R)-1-(4-fluoro-phenyl)-ethyl]-amide}] here?
**A.** 89%

**Q.** With `CC[C@H](NC(=O)c1cc(C(=O)N[C@H](CC)c2ccc(C(F)(F)F)nc2)c2n1CCOC2)c1ccccc1` [16kf, 3,4-Dihydro-1H-pyrrolo[2,1-c][1,4]oxazine-6,8-dicarboxylic acid 6-[((S)-1-phenyl-propyl)-amide] 8-{[(R)-1-(6-trifluoromethyl-pyridin-3-yl)-propyl]-amide}] as the compound, how does the inhibition at 5 µM read?
**A.** 90%

**Q.** Which inhibition at 5 µM does the source give for `CC[C@@H](NC(=O)c1cc(C(=O)N2CCCCC2C)n2c1COCC2)c1ccc(C(F)(F)F)nc1` (stereo partly drawn) [16pc, 6-(2-Methyl-piperidine-1-carbonyl)-3,4-dihydro-1H-pyrrolo[2,1-c][1,4]oxazine-8-carboxylic acid [(R)-1-(6-trifluoromethyl-pyridin-3-yl)-propyl]-amide] here?
**A.** 53%

**Q.** With `CC[C@@H](NC(=O)c1cc(C(=O)NCc2ccc(OC)nc2)n2c1COCC2)c1ccccc1` [16jg, 3,4-Dihydro-1H-pyrrolo[2,1-c][1,4]oxazine-6,8-dicarboxylic acid 6-[(6-methoxy-pyridin-3-ylmethyl)-amide] 8-[((R)-1-phenyl-propyl)-amide]] as the compound, how does the inhibition at 5 µM read?
**A.** 80%

Same assay, conditions: human TASK-1 expressed in Xenopus oocytes, room temperature; read-out: IC50 value for TASK-1 inhibition

**Q.** `CCC(NC(=O)c1cc(C(=O)N2CCCC2)n2c1COCC2)c1ccccc1OC(F)F` (stereo not shown) [16cz, 6-(Pyrrolidine-1-carbonyl)-3,4-dihydro-1H-pyrrolo[2,1-c][1,4]oxazine-8-carboxylic acid [1-(2-difluoromethoxy-phenyl)-propyl]-amide] was tested. Which IC50 did it give?
**A.** 0.31 µM

**Q.** With `CC[C@@H](NC(=O)c1cc(C(=O)NCc2ncco2)c2n1CCOC2)c1ccccc1` [16jn, 3,4-Dihydro-1H-pyrrolo[2,1-c][1,4]oxazine-6,8-dicarboxylic acid 8-[(oxazol-2-ylmethyl)-amide] 6-[((R)-1-phenyl-propyl)-amide]] as the compound, how does the IC50 read?
**A.** 1 µM

**Q.** For `CC[C@@H](NC(=O)c1cc(C(=O)N[C@H](CC)c2ccccc2)n2c1SCC2)c1ccccc1` [16kv, 2,3-Dihydro-pyrrolo[2,1-b]thiazole-5,7-dicarboxylic acid bis-[((R)-1-phenyl-propyl)-amide]], which IC50 is on record?
**A.** 0.32 µM

**Q.** Which IC50 does the source give for `C[C@@H](NC(=O)c1cc(C(=O)N[C@H](C)c2ccc(F)cc2)n2c1COCC2)c1cccc(F)c1` [16do, 3,4-Dihydro-1H-pyrrolo[2,1-c][1,4]oxazine-6,8-dicarboxylic acid 6-{[(R)-1-(4-fluoro-phenyl)-ethyl]-amide} 8-{[(R)-1-(3-fluoro-phenyl)-ethyl]-amide}] here?
**A.** 0.19 µM

**Q.** Which IC50 does the source give for `CCC(NC(=O)c1cc(C(=O)N[C@H](CC)c2ccccc2)c2n1CCOC2)c1cccc(S(N)(=O)=O)c1` (stereo partly drawn) [16ji, 3,4-Dihydro-1H-pyrrolo[2,1-c][1,4]oxazine-6,8-dicarboxylic acid 8-[((R)-1-phenyl-propyl)-amide] 6-{[1-(3-sulfamoyl-phenyl)-propyl]-amide}] here?
**A.** 1.9 µM

**Q.** Which IC50 does the source give for `CC[C@H](NC(=O)c1cc(C(=O)N[C@H](CC)c2ccccc2)c2n1CCCC2)c1ccccc1` [16mb, 5,6,7,8-Tetrahydro-indolizine-1,3-dicarboxylic acid 3-[((S)-1-phenyl-propyl)-amide] 1-[((R)-1-phenyl-propyl)-amide]] here?
**A.** 0.013 µM

**Q.** How did the IC50 turn out when `CC[C@@H](NC(=O)c1cc(C(=O)N2CCC[C@@H]2C)c2n1CCOC2)c1ccccc1C(F)(F)F` [16ni, 8-((S)-2-Methyl-pyrrolidine-1-carbonyl)-3,4-dihydro-1H-pyrrolo[2,1-c][1,4]oxazine-6-carboxylic acid [(R)-1-(2-trifluoromethyl-phenyl)-propyl]-amide] was run?
**A.** 0.29 µM

**Q.** How did the IC50 turn out when `CC[C@@H](NC(=O)c1cc(C(=O)N[C@H](CC)c2cccc(OC)n2)n2c1COCC2)c1ccc(C(F)(F)F)nc1` [16pb, 3,4-Dihydro-1H-pyrrolo[2,1-c][1,4]oxazine-6,8-dicarboxylic acid 6-{[(R)-1-(6-methoxy-pyridin-2-yl)-propyl]-amide} 8-{[(R)-1-(6-trifluoromethyl-pyridin-3-yl)-propyl]-amide}] was run?
**A.** 0.52 µM

**Q.** Which IC50 does the source give for `CC[C@@H](NC(=O)c1cc(C(=O)NC(C)c2cnccn2)c2n1CCOC2)c1ccc(F)cc1F` (single isomer, unassigned) [16pk] here?
**A.** 0.19 µM

**Q.** `CC[C@@H](NC(=O)c1cc(C(=O)N2CCC[C@@H]2C)c2n1CSC2)c1ccccc1` [16kx, 7-((S)-2-Methyl-pyrrolidine-1-carbonyl)-1H-pyrrolo[1,2-c]thiazole-5-carboxylic acid ((R)-1-phenyl-propyl)-amide] was tested. Which IC50 did it give?
**A.** 0.1 µM

**Q.** Which IC50 does the source give for `CC[C@H](NC(=O)c1cc(C(=O)N[C@H](CC)c2ccccc2)c2n1CCOC2)c1cnccn1` [16hx, 3,4-Dihydro-1H-pyrrolo[2,1-c][1,4]oxazine-6,8-dicarboxylic acid 8-[((R)-1-phenyl-propyl)-amide] 6-[((S)-1-pyrazin-2-yl-propyl)-amide]] here?
**A.** 0.057 µM

**Q.** `CC[C@@H](NC(=O)c1cc(C(=O)Nc2nc(C)c(C)s2)c2n1CCCC2)c1ccccc1` [16me, 5,6,7,8-Tetrahydro-indolizine-1,3-dicarboxylic acid 3-[((R)-1-phenyl-propyl)-amide] 1-[(4,5-dimethyl-thiazol-2-yl)-amide]] was tested. Which IC50 did it give?
**A.** 0.34 µM

**Q.** With `CC[C@@H](NC(=O)c1cc(C(=O)N[C@H](C)c2ccc(OC)cc2)n2c1CCCC2)c1ccccc1` [16mt, 5,6,7,8-Tetrahydro-indolizine-1,3-dicarboxylic acid 3-{[(R)-1-(4-methoxy-phenyl)-ethyl]-amide} 1-[((R)-1-phenyl-propyl)-amide]] as the compound, how does the IC50 read?
**A.** 0.32 µM

**Q.** For `CC[C@@H](NC(=O)c1cc(C(=O)N[C@H](CC)c2cccc(OC)n2)n2c1COCC2)c1ccccc1` [16ic, 3,4-dihydro-1H-pyrrolo[2,1-c][1,4]oxazine-6,8-dicarboxylic acid 6-{[(R)-1-(6-methoxy-pyridin-2-yl)-propyl]-amide} 8-[((R)-1-phenyl-propyl)-amide]], which IC50 is on record?
**A.** 0.04 µM

**Q.** With `C[C@H]1CCCN1C(=O)c1cc(C(=O)NCc2ccc(F)cc2Cl)c2n1CCOC2` [16x, 6-((S)-2-Methyl-pyrrolidine-1-carbonyl)-3,4-dihydro-1H-pyrrolo[2,1-c][1,4]oxazine-8-carboxylic acid 2-chloro-4-fluoro-benzylamide] as the compound, how does the IC50 read?
**A.** 0.19 µM

**Q.** With `CC[C@@H](NC(=O)c1cc(C(=O)N2CCC[C@@H]2C)n2c1COCC2)c1ccc(OC)cc1` [16at, 6-((S)-2-Methyl-pyrrolidine-1-carbonyl)-3,4-dihydro-1H-pyrrolo[2,1-c][1,4]oxazine-8-carboxylic acid [(R)-1-(4-methoxy-phenyl)-propyl]-amide] as the compound, how does the IC50 read?
**A.** 0.4 µM

**Q.** `CC[C@@H](NC(=O)c1cc(C(=O)NCc2ccc(F)cc2F)c2n1CCOC2)c1cnccn1` [16ns, 3,4-Dihydro-1H-pyrrolo[2,1-c][1,4]oxazine-6,8-dicarboxylic acid 8-(2,4-difluoro-benzylamide) 6-[((R)-1-pyrazin-2-yl-propyl)-amide]] was tested. Which IC50 did it give?
**A.** 3.1 µM

**Q.** Which IC50 does the source give for `CC[C@@H](NC(=O)c1cc(C(=O)N2CCC[C@@H]2C)n2c1COCC2)c1ccc(C(F)(F)F)cn1` [16bl, 6-((S)-2-Methyl-pyrrolidine-1-carbonyl)-3,4-dihydro-1H-pyrrolo[2,1-c][1,4]oxazine-8-carboxylic acid [(R)-1-(5-trifluoromethyl-pyridin-2-yl)-propyl]-amide] here?
**A.** 0.82 µM

**Q.** `CC[C@H](NC(=O)c1cc(C(=O)N[C@H](CC)c2ccccc2)n2c1COCC2)c1ncccn1` [16ke, 3,4-Dihydro-1H-pyrrolo[2,1-c][1,4]oxazine-6,8-dicarboxylic acid 6-[((R)-1-phenyl-propyl)-amide] 8-[((S)-1-pyrimidin-2-yl-propyl)-amide]] was tested. Which IC50 did it give?
**A.** 0.22 µM

**Q.** With `C[C@@H](NC(=O)c1cc(C(=O)N[C@H](C)c2ccc(F)cc2)n2c1COCC2)c1ccccc1` [16dn, 3,4-Dihydro-1H-pyrrolo[2,1-c][1,4]oxazine-6,8-dicarboxylic acid 6-{[(R)-1-(4-fluoro-phenyl)-ethyl]-amide} 8-[((R)-1-phenyl-ethyl)-amide]] as the compound, how does the IC50 read?
**A.** 0.05 µM

**Q.** How did the IC50 turn out when “3,4-Dihydro-1H-pyrrolo[2,1-c][1,4]oxazine-6,8-dicarboxylic acid 6-{[(R)-1-(4-fluoro-phenyl)-ethyl]-amide} 8-{[(S)-1-(5-methoxy-pyrazin-2-yl)-propyl]-amide} [16dv]” was run?
**A.** 0.19 µM

**Q.** How did the IC50 turn out when `CC[C@@H](NC(=O)c1cc(C(=O)NCc2nc3ccccc3o2)c2n1CCOC2)c1ccccc1` [16js, 3,4-Dihydro-1H-pyrrolo[2,1-c][1,4]oxazine-6,8-dicarboxylic acid 8-[(benzooxazol-2-ylmethyl)-amide] 6-[((R)-1-phenyl-propyl)-amide]] was run?
**A.** 0.54 µM

**Q.** How did the IC50 turn out when `CC[C@@H](NC(=O)c1cc(C(=O)N[C@H](CC)c2ccc(F)cc2)n2c1C(C)OCC2)c1ccccc1` (stereo partly shown) [16lh] was run?
**A.** 0.19 µM

**Q.** For `CC[C@@H](NC(=O)c1cc(C(=O)N2CCC[C@@H]2C)n2c1COCC2)c1c(Cl)cncc1Cl` [16bv, 6-((S)-2-Methyl-pyrrolidine-1-carbonyl)-3,4-dihydro-1H-pyrrolo[2,1-c][1,4]oxazine-8-carboxylic acid [(R)-1-(3,5-dichloro-pyridin-4-yl)-propyl]-amide], which IC50 is on record?
**A.** 0.14 µM

**Q.** With `CC[C@H](NC(=O)c1cc(C(=O)N[C@H](CC)c2ncccn2)c2n1CCOC2)c1ccccc1` [16kb, 3,4-Dihydro-1H-pyrrolo[2,1-c][1,4]oxazine-6,8-dicarboxylic acid 6-[((S)-1-phenyl-propyl)-amide] 8-[((R)-1-pyrimidin-2-yl-propyl)-amide]] as the compound, how does the IC50 read?
**A.** 0.62 µM

**Q.** Which IC50 does the source give for `CC[C@@H](NC(=O)c1cc(C(=O)N[C@H](C)C(C)(C)C)n2c1COCC2)c1ccccc1` [16hr, 3,4-Dihydro-1H-pyrrolo[2,1-c][1,4]oxazine-6,8-dicarboxylic acid 8-[((R)-1-phenyl-propyl)-amide] 6-[((R)-1,2,2-trimethyl-propyl)-amide]] here?
**A.** 0.19 µM
